From publication PMC3973950, “Synthesis of 5-arylidine amino-1,3,4-thiadiazol-2-[(N-substituted benzyol)]sulphonamides endowed with potent antioxidants and anticancer activity induces growth inhibition in HEK293, BT474 and NCI-H226 cells” (Medicinal Chemistry Research, 2013)

Assays:
[1] = In vitro cytotoxicity by MTT assay, HEK 293; assay type: cell-based, human; details: human, HEK 293 cells, read-out: % cytotoxicity (100 − % cell survival) of HEK 293 cell line
Procedure, shortened: (§1)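 Cells seeded at ~10,000/well in RPMI-1640 with 10 % newborn calf serum, grown 24 h, then exposed to compounds for 72 h at 37 °C, 5 % CO2. Viability read by MTT (4 h), formazan dissolved in propanol, absorbance at 490 nm.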

[2] = test system: BT474 (breast cancer cell line); assay: In vitro cytotoxicity by MTT assay, BT474; assay type: cell-based; details: Homo sapiens, 72 h; for cytotoxicity at 0.005 µM: BT-474, 0.005 μM; for cytotoxicity at 0.005 µM / cytotoxicity at 0.015 µM / cytotoxicity at 0.045 µM / cytotoxicity at 0.13 µM / cytotoxicity at 0.41 µM / cytotoxicity at 1.23 µM / cytotoxicity at 3.7 µM / cytotoxicity at 11.11 µM / cytotoxicity at 33.33 µM / cytotoxicity at 100 µM: read-out: % cytotoxicity (100 − % cell survival) of BT474 cell line; for cytotoxicity at 0.015 µM: BT-474, 0.015 μM; for cytotoxicity at 0.045 µM: BT-474, 0.045 μM; for cytotoxicity at 0.13 µM: BT-474, 0.13 μM; for cytotoxicity at 0.41 µM: BT-474, 0.41 μM; for cytotoxicity at 1.23 µM: BT-474, 1.23 μM; for cytotoxicity at 3.7 µM: BT-474, 3.7 μM; for cytotoxicity at 11.11 µM: BT-474, 11.11 μM; for cytotoxicity at 33.33 µM: BT-474, 33.33 μM; for cytotoxicity at 100 µM: BT-474, 100 μM
Procedure, shortened: as §1

[3] = In vitro cytotoxicity by MTT assay, NCI-H226; assay type: cell-based; details: human, NCI-H226 lung cancer cells, 0.015 μM, read-out: % Cytotoxicity (100 − % cell survival) of NCI-H226 cell line
Procedure, shortened: as §1

[4] = test system: NCI-H226 (lung cancer cell line); assay: In vitro cytotoxicity by MTT assay, NCI-H226; assay type: cell-based; details: Homo sapiens, 72 h, read-out: % Cytotoxicity (100 − % cell survival) of NCI-H226 cell line; for cytotoxicity at 0.005 µM: NCI-H226, 0.005 μM; for cytotoxicity at 0.045 µM: NCI-H226, 0.045 μM; for cytotoxicity at 0.13 µM: NCI-H226, 0.13 μM; for cytotoxicity at 0.41 µM: NCI-H226, 0.41 μM; for cytotoxicity at 1.23 µM: NCI-H226, 1.23 μM; for cytotoxicity at 3.7 µM: NCI-H226, 3.7 μM; for cytotoxicity at 11.11 µM: NCI-H226, 11.11 μM; for cytotoxicity at 33.33 µM: NCI-H226, 33.33 μM; for cytotoxicity at 100 µM: NCI-H226, 100 μM
Procedure, shortened: as §1

SMILES | cytotoxicity at 72 h, 0.005 µM [1] [%] | cytotoxicity at 72 h, 0.015 µM [1] [%] | cytotoxicity at 72 h, 0.045 µM [1] [%] | cytotoxicity at 72 h, 0.13 µM [1] [%] | cytotoxicity at 72 h, 0.41 µM [1] [%] | cytotoxicity at 72 h, 1.23 µM [1] [%] | cytotoxicity at 72 h, 3.7 µM [1] [%] | cytotoxicity at 72 h, 11.11 µM [1] [%] | cytotoxicity at 72 h, 33.33 µM [1] [%] | cytotoxicity at 72 h, 100 µM [1] [%] | cytotoxicity at 0.005 µM [2] [%] | cytotoxicity at 0.015 µM [2] [%] | cytotoxicity at 0.045 µM [2] [%] | cytotoxicity at 0.13 µM [2] [%] | cytotoxicity at 0.41 µM [2] [%] | cytotoxicity at 1.23 µM [2] [%] | cytotoxicity at 3.7 µM [2] [%] | cytotoxicity at 11.11 µM [2] [%] | cytotoxicity at 33.33 µM [2] [%] | cytotoxicity at 100 µM [2] [%] | other results
Nc1nnc(S(=O)(=O)NC(=O)c2ccccc2N)s1 [Compound 4b] | 41.5 | 47 | 50.4 | 53.6 | 57.6 | 58.1 | 59.7 | 62.3 | 63.1 | 65.4 | 16.2 | 16.6 | 17.4 | 18 | 18.1 | 19.9 | 20.5 | 22.2 | 23.3 | 26.7 | cytotoxicity at 72 h, 0.015 µM [3]: 32.9%; cytotoxicity at 0.005 µM [4]: 32.1%; cytotoxicity at 0.045 µM [4]: 33.5%; cytotoxicity at 0.13 µM [4]: 34%; cytotoxicity at 0.41 µM [4]: 34.7%; cytotoxicity at 1.23 µM [4]: 35.1%; cytotoxicity at 3.7 µM [4]: 36%; cytotoxicity at 11.11 µM [4]: 36.3%; cytotoxicity at 33.33 µM [4]: 37.2%; cytotoxicity at 100 µM [4]: 39.5%
NS(=O)(=O)c1ccc(S(=O)(=O)Nc2cccc3c(Cl)c[nH]c23)cc1 [ISL, indisulam, reference compound] | 42.3 | 46.9 | 48.6 | 50.1 | 51.1 | 52.2 | 55.4 | 57.8 | 61.2 | 69.4 | 42.2 | 45 | 46.4 | 49 | 50.8 | 52.9 | 54.7 | 62.5 | 66.1 | 73.5 | cytotoxicity at 72 h, 0.015 µM [3]: 28.4%; cytotoxicity at 0.005 µM [4]: 26.4%; cytotoxicity at 0.045 µM [4]: 30.2%; cytotoxicity at 0.13 µM [4]: 31.1%; cytotoxicity at 0.41 µM [4]: 33%; cytotoxicity at 1.23 µM [4]: 34.1%; cytotoxicity at 3.7 µM [4]: 36.5%; cytotoxicity at 11.11 µM [4]: 38.6%; cytotoxicity at 33.33 µM [4]: 44.7%; cytotoxicity at 100 µM [4]: 59.3%
Nc1nnc(S(=O)(=O)NC(=O)c2cccc([N+](=O)[O-])c2)s1 [Compound 4f] | 24.3 | 26.4 | 28.1 | 28.4 | 28.9 | 29.2 | 30 | 30.7 | 31.2 | 32 | 37.6 | 39 | 41.3 | 43.8 | 45.3 | 48.5 | 50.1 | 52.4 | 55.3 | 59.3 | CC50 ([2]; BT-474, BT474, concentration at which 50 % of the cells are dead, read-out: CTC50 (cytotoxicity concentration)): 1560 nM; cytotoxicity at 72 h, 0.015 µM [3]: 38.6%; cytotoxicity at 0.005 µM [4]: 37.2%; cytotoxicity at 0.045 µM [4]: 39.7%; cytotoxicity at 0.13 µM [4]: 41.6%; cytotoxicity at 0.41 µM [4]: 42.9%; cytotoxicity at 1.23 µM [4]: 45.8%; cytotoxicity at 3.7 µM [4]: 46.5%; cytotoxicity at 11.11 µM [4]: 48.3%; cytotoxicity at 33.33 µM [4]: 50.1%; cytotoxicity at 100 µM [4]: 52.9%
Nc1nnc(S(=O)(=O)NC(=O)c2ccc(Cl)cc2)s1 [Compound 4g] | 39.3 | 40.5 | 41.2 | 43.7 | 45.1 | 45.6 | 46.4 | 47.1 | 48.7 | 50.2 | 30.6 | 31.4 | 32.1 | 33.2 | 34.1 | 34.9 | 35.2 | 36.2 | 37.8 | 38.2 | cytotoxicity at 72 h, 0.015 µM [3]: 36.1%; cytotoxicity at 0.005 µM [4]: 35.8%; cytotoxicity at 0.045 µM [4]: 37%; cytotoxicity at 0.13 µM [4]: 37.1%; cytotoxicity at 0.41 µM [4]: 37.8%; cytotoxicity at 1.23 µM [4]: 38.1%; cytotoxicity at 3.7 µM [4]: 39.4%; cytotoxicity at 11.11 µM [4]: 40.3%; cytotoxicity at 33.33 µM [4]: 41.4%; cytotoxicity at 100 µM [4]: 41.8%
